The results in this text go back to a melting point compilation (Tetko et al.; mined from patent text by program, amines drawn as free bases though some values may be those of a salt).

What is called melting point is the temperature, or range, at which the solid turns liquid. `O=C(O)c1cn(C2CC2)c2c(F)c(F)c(Cl)cc2c1=O`: the melting point lay in the range of 200 to 204 °C.
For `CC(=O)NC(Cc1csc2ccccc12)C(=O)C=Cc1cc(C(F)(F)F)cc(C(F)(F)F)c1` (stereo not drawn), the melting point lay in the range of 172 to 173 °C.
The molecule `COC(=O)c1ccc(-c2ccccn2)cc1` had a melting point of 96 °C.
In the case of `CCCCCCCCS(=O)(=O)Nc1ccccc1Oc1ccccc1C(=O)O`, the melting point fell in the range of 100 to 102 °C.
`CC(C)C1(C)N=C(c2cc3c(nc2C(=O)O)COC3)NC1=O` (stereo not drawn) gave a melting point of 115 to 118 °C.
For `CCCCCCCCCCCCCCCCCCN(C(=O)OC(C)(C)C)c1ccc(CCC(=O)O)cc1` the value was 46 to 48 °C; for `O=C(O)[C@H](Cc1cccc(OC(F)(F)C(F)F)c1)[C@@H](O)c1ccnc(F)c1` (racemic), 134 to 135 °C; for `C#CCOc1cc(-n2c(=O)cc(C(F)(F)F)n(C)c2=O)c(F)cc1Br`, 134 °C.
`CNC1=Nc2ccc(Cl)cc2C(c2ccc[nH]2)=NC1` came in with a melting point of 251 °C.
Molecule `COC(=O)c1ccoc1-c1cccc([N+](=O)[O-])c1` yielded a melting point of 93 to 94 °C.
`Nc1ccc(C(O)c2ccc(Cl)cn2)cc1` (stereo not drawn) registered a melting point of 122 to 123 °C.
For `COc1ccc(C(C)(C#N)CNC(=O)C(N)=O)cc1OC1CCCC1` (stereo not drawn) the value was 171 to 172 °C; for `CS(=O)(=O)c1ccc(C(CC2CCCC2)C(=O)Nc2nccs2)cc1Br` (stereo not drawn), 106 to 107 °C; for `CC12CCCc3cc(Nc4ccc(C(=O)O)cc4)cc(c31)CCC2`, 232 to 234 °C.
`CC(=O)c1ccc(OCc2ccccc2)c(OC/C=C/CN2CCC(c3noc4cc(F)ccc34)CC2)c1` had a melting point of 124 to 125 °C.
As to `NC1CCc2cc(Cl)ccc2NC1=O` (stereo not drawn), the melting point was in the range of 170 to 171 °C.
For `COc1ccc(C(=O)Nc2ccccc2)cc1NS(=O)(=O)c1ccc(C#N)cc1` the value was 206 to 208 °C.
Regarding `CC(C)(C)OC(=O)n1cnc2c([N+](=O)[O-])cccc21`, the melting point is 249 °C.
With `CC(=O)On1cnc2c(Br)csc2c1=O` the figure was 159 to 162 °C; with `O=C1CC(c2cccc(-n3ccnn3)c2)=Nc2cc(O)c(-c3ccc(F)cc3)cc2N1`, > 250 °C; with `N#Cc1ccc(C(=O)NCc2nn(-c3ccccc3Cl)c(-c3ccc(Cl)cc3)c2C#N)cc1`, 118 °C.
With `Oc1ccc(-c2cc3ccc(O)cc3s2)cc1` the figure was 305 to 306 °C; with `Cc1cccc(NS(=O)(=O)c2cc(S(=O)(=O)Nc3cccc(C)c3)c3cc(O)ccc3c2)c1`, 115 to 117 °C.
With `COc1ccc(S(=O)(=O)N2Cc3ccsc3C[C@@H]2C(=O)O)cc1`, the melting point is 110 °C.
`CCOC(=O)C1=Cc2ccc(O)cc2OCC1` returned a melting point of 131 to 132 °C.
With `Cn1nc(-c2c(Cl)cccc2Cl)nc1-c1sc(Cl)c(Cl)c1Cl` the figure was 146 to 147 °C.
With `O=C(O)CCCC/C=C(/c1ccc(-c2nc(C(=O)NCCCCC3CCCCC3)co2)cc1)c1cccnc1`, the melting point lay within 52 to 56 °C.
`O=[N+]([O-])c1ccc(Cl)cc1NC12CC3CC(CC(C3)C1)C2` had a melting point of 146 °C.
As to `Clc1ccc2c(c1)C(c1ccccc1)=NCCN2C1=NCCO1`, the melting point was in the range of 125 to 126 °C.
For `COc1cccc([C@H]2O[C@H](CC(=O)Nc3cc4c(c(C(=O)O)c3)CCCC4)C(=O)N(CC(C)(C)CO)c3ccc(Cl)cc32)c1OC`, the melting point was 178 to 179 °C.
For `CCCCN(CC(O)C(Cc1ccccc1)NC(=O)C(CC(N)=O)NC(=O)NCc1ccccc1)C(=O)NC(C)(C)C` (stereo not drawn) the value was 166 to 167 °C.
`Nc1nc2c(c(N3CCN(CCc4ccccc4)CC3)n1)Cc1ccccc1-2` gave a melting point of 122 to 124 °C.
Take `COc1cc2c(cc1C(F)(F)F)N(C(=O)Nc1ccccc1CCN(C)C)CC2`: the melting point lay in the range of 166 to 168 °C.
For `O=C(O)COc1cccc2c1OCc1sc(SCC(c3ccccc3)c3ccccc3)nc1-2` the value was 182 to 184 °C; for `Cc1cc(O)c(C23CC4CC(CC(C4)C2)C3)cc1-c1cccc(C=C2SC(N3CCOCC3)=NC2=O)c1`, 327 to 329 °C; for `CNC(=O)Nc1ccc(Oc2cccc(C(F)(F)F)c2)c(Cl)c1`, 160 °C.
`CCCOc1ccc(Br)c(C(=O)C=Cc2ccc3c(c2)OCO3)c1`: the melting point was in the range of 80 to 82 °C.
For the molecule `O=CC=C(c1cccc(F)c1)c1cccc(F)c1`, the melting point fell in the range of 51 to 53 °C.
For `C[C@H](NC(=O)Cc1cc(F)cc(F)c1)C(=O)N[C@@H]1C(=O)Nc2ccccc2S[C@@H]1c1ccc(Br)s1` the value was 139 to 140 °C.
`COCc1cc(NC(=O)OC)no1` registered a melting point of 90 to 91 °C.
The molecule `CN1C(=O)C(c2ccc(OC(F)F)cc2)(c2cccc(OC(F)F)c2)N=C1N` (stereo not drawn) registered a melting point of 52 to 54 °C.
Turning to `CC(OCc1cc2cc(C(F)(F)F)ccc2n1S(=O)(=O)c1ccc2c(c1)OCCN2C)C(=O)O` (stereo not drawn), the melting point lay within 118 to 120 °C.
On to `CC(=O)OCc1ccc2oc(=O)c(C(=O)Oc3cc(F)ccc3Br)cc2c1`, for which the melting point lay within 148 to 150 °C.
The molecule `CCOc1cc2ncc(C#N)c(NCc3cccc(Br)c3)c2cc1OCC` had a melting point of 156 to 159 °C.
For `CCCc1ccccc1OCCCOc1ccc2c(=O)cc(-c3nnn[nH]3)oc2c1` the value was 191 to 193 °C.
`Fc1c(F)c(Br)c2nsnc2c1Br` came in with a melting point of 148 to 149 °C.
With `CCC(=O)c1ccc(=O)[nH]c1C=CN(C)C`, the melting point is 204 to 206 °C.
In turn, `O=C(c1cc2ccccc2cn1)N(O)CCc1ccccc1` returned a melting point of 90 to 95 °C.
For `Cc1cccc(NC(=O)NCC(=O)N2C(C(=O)OC(C)(C)C)CCCC2c2ccccc2)c1` (stereo not drawn) the value was 123 °C; for `CCNc1nc(SC)ncc1C=O`, 58 to 61 °C; for `CNC(=O)[C@H](Cc1ccccc1)NC(=O)[C@H](CC(C)C)N[C@H](CCN(C(=O)OCc1ccccc1)C(=O)OCc1ccccc1)C(=O)OC(C)(C)C`, 95 to 99 °C.
For `C=CCOc1ccc2c(C)c(F)c(=O)oc2c1C` the value was 117 °C.
On to `CCCCc1nc2c(c(C)c(C)n3nnnc23)n1CC(C)(C)NC(=O)c1ccccc1`, for which the melting point was 201 to 204 °C.
As to `COc1ccc2nc(NC(=O)C(CC3CCCC3)c3ccc(S(=O)(=O)NCc4cccnc4)cc3)sc2n1` (stereo not drawn), the melting point was in the range of 227 to 229 °C.
For `CSc1ccccc1CNC(=O)c1ccc2cnccc2n1` the value was 102 to 103 °C; for `O=S(=O)(c1cc(Cl)ccc1O)N1CCCC1`, 101 to 102 °C.
Consider `O=C(Nc1cccnc1)N1CCc2cc(I)ccc21`, for which the melting point was in the range of 210 to 215 °C.
`CC(C)c1cn2ccccc2c1S(=O)(=O)c1ccc(OCCCN2CCN(C(c3ccccc3)c3ccccc3)CC2)cc1` returned a melting point of 170 °C.
With `CC(=O)Nc1cc(N2CCN(C(=O)OC(C)(C)C)CC2)ccc1S(=O)(=O)c1ccccc1` the figure was 129 to 130 °C; with `COc1ccc(C(=O)Nc2ccccc2C(c2ccc(O)cc2)c2ccc(O)cc2)cc1`, 154 to 156 °C; with `CNc1nc(-c2ccccc2)c(-c2nc3ccccc3c(=O)n2-c2ccccc2Cl)s1`, 215 to 217 °C.
As for `O=C(O)[C@@H]1Cc2c(ncn2Cc2ccccc2)CN1C(=O)C(c1ccc(Cl)cc1)c1ccc(Cl)cc1`, the melting point lay within 162 to 170 °C.
The molecule `CNC(=O)[C@@H](C[C@H](O)[C@H](CC1CCCCC1)NC(=O)OC(C)(C)C)C(C)C` gave a melting point of 154 to 157 °C.
`CCc1nc2c(C)cc(C)nc2n1Cc1ccc(C(CC(=O)NS(C)(=O)=O)c2ccccc2)cc1` (stereo not drawn): the melting point lay within 118 to 123 °C.
For `CC(CC#N)(C(=O)NCC#N)c1ccc(C(=O)Nc2cn3cc(Cl)ccc3n2)cc1` (stereo not drawn) the value was 268 to 269 °C; for `N#Cc1cccc(NC(=O)CN2CCC(Cc3ccc(F)cc3)CC2)c1`, 101 to 103 °C; for `COc1cc(C=CC(=O)Nc2cnc3ccc(Cl)cc3c2-c2ccccc2C)cc(OC)c1OC(C)=O`, 277 to 278 °C.
`CCCCCCCCCCCCCCCCCC(=O)NCC(C)(C)NCC(O)c1cc(Cl)c(N)c(Cl)c1` (stereo not drawn) had a melting point of 74 to 76 °C.
Regarding `O=c1[nH]c(NCCCN(Cc2ccccc2)c2ccccn2)ncc1Cc1ccncc1`, the melting point was 87 to 89 °C.
Molecule `CNC(=O)N1CC(Oc2ccc(F)cc2Cl)C1` displayed a melting point of 139 to 141 °C.
As for `CSC[C@H](C)NC(=O)c1c(OC(F)(F)F)cccc1C(=O)Nc1ccc(Cn2nc(C(F)(F)F)cc2C(F)(F)F)cc1C`, the melting point fell in the range of 158 to 160 °C.
With `CC1(C)CC(S(=O)(=O)Cc2c(C(F)(F)F)nn(C(F)F)c2Cl)=NO1` the figure was 126 to 127 °C.
With `Nc1nc2cccnc2c2c1nc(CCO)n2CC1(O)CCOCC1` the figure was 226 to 227 °C.
For `CCOC(=O)C1=C(C)Nc2ccnc(OC(C)C)c2C1c1ccc(C(F)(F)F)cc1` (stereo not drawn), the melting point was in the range of 117 to 120 °C.
`CN(C)S(=O)(=O)c1c(S(N)(=O)=O)ccn1C` displayed a melting point of 146 to 148 °C.
Molecule `COC(=O)c1ccc(OCCNC(=O)C2Cc3ccccc3N2S(=O)(=O)c2ccc(-c3ccc(F)cc3)cc2)c(C(F)(F)F)c1` (stereo not drawn) yielded a melting point of 90 to 95 °C.
Molecule `CCCCCCCCn1nc(C)c(N=Nc2c(O)cc(S(=O)(=O)N(CC)CC)c3ccccc23)c1O` yielded a melting point of 122 to 123 °C.
The molecule `CN(Cc1ccc(NC(=O)C2=Cc3cc(-c4ccc(N5CCOCC5)cc4)ccc3N(C=O)CC2)cc1)C1CCOCC1` displayed a melting point of 234 to 243 °C.
`CCNC(=O)c1ccc(N2CCN(Cc3cnc4c(c3)NC(=O)[C@@H]3CSCCN43)CC2)cc1` yielded a melting point of 289 °C.
The molecule `Cn1cc(C(=O)O)c(=O)c2cc(Cl)c(N3CCOCC3)cc21` came in with a melting point of 334 °C.
The molecule `CCOc1cc(C(CC#N)N2C(=O)c3cccc(N)c3C2=O)ccc1OC` (stereo not drawn) showed a melting point of 171 to 172 °C.
On to `Cc1ccc(S(=O)(=O)N(C)SN(c2cc(C(F)(F)F)ccc2Cl)c2c([N+](=O)[O-])cc([N+](=O)[O-])cc2C(F)(F)F)cc1`, for which the melting point fell in the range of 142 to 144 °C.
Molecule `COc1cccc(OC)c1C1(O)C(=O)Nc2ccc(Cl)cc21` (stereo not drawn) had a melting point of 182 °C.
